# Test system: ATF4 luciferase reporter in HEK293T cells
# Assay: ATF4-Luc assay (in vitro model of VWMD)
# Assay type: cell-based, human
# Settings: Homo sapiens, HEK-293T, 7 h, HEK293T cells carrying the ATF4 luciferase reporter, 1 μg/mL tunicamycin, One Glo luminescence
# Procedure: In order to test exemplary compounds of the invention in a cellular context, a stable VWMD cell line was first constructed. The ATF4 reporter was prepared by fusing the human full-length ATF4 5′-UTR (NCBI Accession No. BC022088.2) in front of the firefly luciferase (FLuc) coding sequence lacking the initiator methionine as described in Sidrauski et al (eLife 2013). The construct was used to produce recombinant retroviruses using standard methods and the resulting viral supernatant was used to transduce HEK293T cells, which were then subsequently selected with puromycin to generate a stable cell line.
# HEK293T cells carrying the ATF4 luciferase reporter were plated on polylysine coated 384-well plates (Greiner Bio-one) at 30,000 cells per well. Cells were treated the next day with 1 μg/mL tunicamycin and 200 nM of a compound of Formula (I) for 7 hours. Luminescence was measured using One Glo (Promega) as specified by the manufacturer. Cells were maintained in DMEM with L-glutamine supplemented with 10% heat-inactivated FBS (Gibco) and Antibiotic-Antimycotic solution (Gibco).
# Table 4 below summarizes the EC50 data obtained using the ATF4-Luc assay for exemplary compounds of the invention.
row,Structure (SMILES),EC50 [µM]
1,"O=C(NC12CC(c3cn(-c4ccc(Cl)c(F)c4)nn3)(C1)C2)[C@H]1C[C@@H](O)c2cc(Cl)ccc2O1 [Compound 311, (2R,4R)-6-chloro-N-{3-[1-(4-chloro-3-fluorophenyl)-1H-1,2,3-triazol-4-yl]bicyclo[1.1.1]pentan-1-yl}-4-hydroxy-3,4-dihydro-2H-1-benzopyran-2-carboxamide]",< 0.01
2,"O=C(NC12CC(c3cc(OCCCOC(F)(F)F)ncn3)(C1)C2)[C@H]1C[C@@H](O)c2cc(Cl)ccc2O1 [Compound 648, (2R,4R)-6-chloro-4-hydroxy-N-(3-{6-[3-(trifluoromethoxy)propoxy]pyrimidin-4-yl}bicyclo[1.1.1]pentan-1-yl)-3,4-dihydro-2H-1-benzopyran-2-carboxamide]",< 0.01
3,"O=C(NC12CC(n3cc(-c4ccc(C(F)(F)F)cn4)cn3)(C1)C2)[C@H]1C[C@@H](O)c2cc(Cl)c(Cl)cc2O1 [Compound 567, (2R,4R)-6,7-dichloro-4-hydroxy-N-(3-{4-[5-(trifluoromethyl)pyridin-2-yl]-1H-pyrazol-1-yl}bicyclo[1.1.1]pentan-1-yl)-3,4-dihydro-2H-1-benzopyran-2-carboxamide]",< 0.01
4,"CCOC(=O)OC[C@@H]1C[C@H]1c1cn(C23CC(NC(=O)[C@H]4C[C@@H](O)c5cc(Cl)ccc5O4)(C2)C3)nn1 (mixture of isomers) [Compound 543, ((1RS,2RS)-2-[1-(3-{[(2R,4R)-6-chloro-4-hydroxy-3,4-dihydro-2H-1-benzopyran-2-carbonyl]amino}bicyclo[1.1.1]pentan-1-yl)-1H-1,2,3-triazol-4-yl]cyclopropyl)methyl ethyl carbonate]",< 0.01
5,"O=C(NC12CC(c3cnc(OCCOC(F)(F)F)o3)(C1)C2)[C@H]1C[C@@H](O)c2cc(Cl)ccc2O1 [Compound 414, (2R,4R)-6-chloro-4-hydroxy-N-(3-{2-[2-(trifluoromethoxy)ethoxy]-1,3-oxazol-5-yl}bicyclo[1.1.1]pentan-1-yl)-3,4-dihydro-2H-1-benzopyran-2-carboxamide]",< 0.01
6,"O=C(COc1ccc(Cl)c(F)c1)NC12CC(n3cc(C(=O)N[C@H]4C[C@@H](OC(F)(F)F)C4)cn3)(C1)C2 [Compound 362, 1-{3-[2-(4-chloro-3-fluorophenoxy)acetamido]bicyclo[1.1.1]pentan-1-yl}-N-[cis-3-(trifluoromethoxy)cyclobutyl]-1H-pyrazole-4-carboxamide]",0.05 to 0.25
7,"COc1ccc2cn(C34CC(NC(=O)[C@H]5C[C@@H](O)c6cc(Cl)c(F)cc6O5)(C3)C4)nc2c1 [Compound 504, (2R,4R)-6-chloro-7-fluoro-4-hydroxy-N-[3-(6-methoxy-2H-indazol-2-yl)bicyclo[1.1.1]pentan-1-yl]-3,4-dihydro-2H-1-benzopyran-2-carboxamide]",< 0.01
8,"O=C(NC12CC(n3cc4c(n3)CN(CCOC(F)(F)F)C4)(C1)C2)[C@H]1C[C@@H](O)c2cc(Cl)c(F)cc2O1 [Compound 512, (2R,4R)-6-chloro-7-fluoro-4-hydroxy-N-(3-{5-[2-(trifluoromethoxy)ethyl]-5,6-dihydropyrrolo[3,4-c]pyrazol-2(4H)-yl}bicyclo[1.1.1]pentan-1-yl)-3,4-dihydro-2H-1-benzopyran-2-carboxamide]",0.01 to 0.05
9,"O=C(NC12CC(n3cc(OCCOC(F)(F)F)cn3)(C1)C2)[C@H]1C[C@@H](O)c2cc(Cl)c(F)cc2O1 [Compound 413, (2R,4R)-6-chloro-7-fluoro-4-hydroxy-N-(3-{4-[2-(trifluoromethoxy)ethoxy]-1H-pyrazol-1-yl}bicyclo[1.1.1]pentan-1-yl)-3,4-dihydro-2H-1-benzopyran-2-carboxamide]",< 0.01
10,"COc1ccc2nn(C34CC(NC(=O)C5CNc6cc(C(F)(F)F)c(F)cc6O5)(C3)C4)cc2c1 (stereo not shown) [Compound 653, 7-fluoro-N-[3-(5-methoxy-2H-indazol-2-yl)bicyclo[1.1.1]pentan-1-yl]-6-(trifluoromethyl)-3,4-dihydro-2H-1,4-benzoxazine-2-carboxamide]",0.05 to 0.25
11,"O=C(NC12CC(n3cc(C(=O)N4CC[C@H](F)C4)cn3)(C1)C2)[C@H]1C[C@@H](O)c2cc(Cl)ccc2O1 [Compound 382, (2R,4R)-6-chloro-N-(3-{4-[(3S)-3-fluoropyrrolidine-1-carbonyl]-1H-pyrazol-1-yl}bicyclo[1.1.1]pentan-1-yl)-4-hydroxy-3,4-dihydro-2H-1-benzopyran-2-carboxamide]",0.05 to 0.25
12,"O=C(NC12CC(n3cc(C(=O)N4CC[C@@H](OC(F)(F)F)C4)cn3)(C1)C2)[C@H]1C[C@@H](O)c2cc(Cl)ccc2O1 [Compound 370, (2R,4R)-6-chloro-4-hydroxy-N-(3-{4-[(3R)-3-(trifluoromethoxy)pyrrolidine-1-carbonyl]-1H-pyrazol-1-yl}bicyclo[1.1.1]pentan-1-yl)-3,4-dihydro-2H-1-benzopyran-2-carboxamide]",0.01 to 0.05
13,"O=C(NC12CC(n3cc(C(=O)N4CC(COC(F)(F)F)C4)cn3)(C1)C2)[C@H]1C[C@@H](O)c2ccccc2O1 [Compound 375, (2R,4R)-4-hydroxy-N-[3-(4-{3-[(trifluoromethoxy)methyl]azetidine-1-carbonyl}-1H-pyrazol-1-yl)bicyclo[1.1.1]pentan-1-yl]-3,4-dihydro-2H-1-benzopyran-2-carboxamide]",0.25 to 0.5
14,"O=C(NC12CC(n3cc(C[C@H]4C[C@H](OC(F)(F)F)C4)cn3)(C1)C2)[C@H]1C[C@@H](O)c2cc(Cl)ccc2O1 [Compound 529, (2R,4R)-6-chloro-4-hydroxy-N-[3-(4-{[(1r,3S)-3-(trifluoromethoxy)cyclobutyl]methyl}-1H-pyrazol-1-yl)bicyclo[1.1.1]pentan-1-yl]-3,4-dihydro-2H-1-benzopyran-2-carboxamide]",0.01 to 0.05
15,"O=C(NC12CC(n3cc(CCCOC(F)(F)F)cn3)(C1)C2)[C@H]1C[C@@H](O)c2cc(C(F)(F)F)ccc2O1 [Compound 513, (2R,4R)-4-hydroxy-N-(3-{4-[3-(trifluoromethoxy)propyl]-1H-pyrazol-1-yl}bicyclo[1.1.1]pentan-1-yl)-6-(trifluoromethyl)-3,4-dihydro-2H-1-benzopyran-2-carboxamide]",< 0.01
16,"O=C(CO[C@H]1C[C@@H](OC(F)(F)F)C1)NC12CCC(NC(=O)[C@H]3C[C@@H](O)c4cc(Cl)c(F)cc4O3)(CC1)C[C@@H]2O [Compound 488, (2R,4R)-6-chloro-7-fluoro-4-hydroxy-N-[(3S)-3-hydroxy-4-(2-{[(1s,3R)-3-(trifluoromethoxy)cyclobutyl]oxy}acetamido)bicyclo[2.2.2]octan-1-yl]-3,4-dihydro-2H-1-benzopyran-2-carboxamide]",< 0.01
17,"O=C(NC12CC(n3cc(C[C@H]4C[C@H](OC(F)(F)F)C4)cn3)(C1)C2)[C@H]1C[C@@H](O)c2cc(Cl)c(F)cc2O1 [Compound 530, (2R,4R)-6-chloro-7-fluoro-4-hydroxy-N-[3-(4-{[(1r,3S)-3-(trifluoromethoxy)cyclobutyl]methyl}-1H-pyrazol-1-yl)bicyclo[1.1.1]pentan-1-yl]-3,4-dihydro-2H-1-benzopyran-2-carboxamide]",0.01 to 0.05
18,"O=C(NC12CC(n3cc(N4CC[C@H](COC(F)(F)F)C4)cn3)(C1)C2)[C@H]1C[C@@H](O)c2cc(Cl)ccc2O1 [Compound 373, (2R,4R)-6-chloro-4-hydroxy-N-[3-(4-{(3S)-3-[(trifluoromethoxy)methyl]pyrrolidin-1-yl}-1H-pyrazol-1-yl)bicyclo[1.1.1]pentan-1-yl]-3,4-dihydro-2H-1-benzopyran-2-carboxamide]",0.05 to 0.25
19,"O=C(NC12CC(n3cc(C(=O)N4CC(CC(F)F)C4)cn3)(C1)C2)[C@H]1C[C@@H](O)c2cc(Cl)ccc2O1 [Compound 377, (2R,4R)-6-chloro-N-(3-{4-[3-(2,2-difluoroethyl)azetidine-1-carbonyl]-1H-pyrazol-1-yl}bicyclo[1.1.1]pentan-1-yl)-4-hydroxy-3,4-dihydro-2H-1-benzopyran-2-carboxamide]",0.25 to 0.5
20,"O=C(CO[C@H]1C[C@@H](OC(F)(F)F)C1)NC12CCC(NC(=O)[C@H]3C[C@@H](O)c4cc(C(F)(F)F)c(F)cc4O3)(CC1)C[C@@H]2O [Compound 647, (2R,4R)-7-fluoro-4-hydroxy-N-[(3S)-3-hydroxy-4-(2-{[(1s,3R)-3-(trifluoromethoxy)cyclobutyl]oxy}acetamido)bicyclo[2.2.2]octan-1-yl]-6-(trifluoromethyl)-3,4-dihydro-2H-1-benzopyran-2-carboxamide]",< 0.01
21,"O=C(NC12CC(n3cc(OCCOC(F)(F)F)cn3)(C1)C2)[C@H]1C[C@@H](O)c2cc(C(F)(F)F)c(F)cc2O1 [Compound 483, (2R,4R)-7-fluoro-4-hydroxy-N-(3-{4-[2-(trifluoromethoxy)ethoxy]-1H-pyrazol-1-yl}bicyclo[1.1.1]pentan-1-yl)-6-(trifluoromethyl)-3,4-dihydro-2H-1-benzopyran-2-carboxamide]",< 0.01
22,"O=C(NC12CC(n3cc(-c4ccc(C(F)(F)F)cn4)cn3)(C1)C2)C1CNc2cc(C(F)(F)F)c(F)cc2O1 (stereo not shown) [Compound 591, 7-fluoro-6-(trifluoromethyl)-N-(3-{4-[5-(trifluoromethyl)pyridin-2-yl]-1H-pyrazol-1-yl}bicyclo[1.1.1]pentan-1-yl)-3,4-dihydro-2H-1,4-benzoxazine-2-carboxamide]",0.01 to 0.05
